Test results: US8158792B2, “Spiropiperidines for use as tryptase inhibitors” (Janssen Pharmaceutica N.V., priority 2007, dated 2012)

molecular target: human lung tryptase; test: β-Tryptase In-Vitro Enzyme Assay; format: biochemical; details: human lung tryptase 1 nM, substrate H-D-HHT-Ala-Arg-pNa 500 μM, pH 7.4, room temperature
Experimental: The β-tryptase assay was conducted with human lung tryptase (Cortex Biochem #CP3033) in an aqueous buffer (10 mM Tris, 10 mM Hepes, 150 mM NaCl, 0.1% PEG 8000, pH 7.4) using the chromogenic substrate H-D-HHT-Ala-Arg-pNa. […] Percent inhibition was calculated by comparing the initial reaction velocity of samples without inhibitor to those with inhibitor. The initial reaction velocities were analyzed using Microsoft Excel.

Compound	IC50
NCc1ccc2c(c1)C1(CCN(C(=O)c3ccc(C#Cc4ccccc4)o3)CC1)CN2CCP(=O)(O)O [Cpd 326, 1-(5-phenylethynyl-furan-2-yl)carbonyl-5′-aminomethyl-spiro[piperidine-4,3′-(2H)-indole]-1′-(2-ethyl-phosphonic acid)]	470 nM
Cc1ccc(-c2ccc(C(=O)N3CCC4(CC3)COc3ccc(CN)cc34)o2)cc1 [Cpd 131, 1-[5-(4-methyl-phenyl)-furan-2-yl]carbonyl-5′-aminomethyl-spiro[piperidine-4,3′-(2H)-benzo[b]furan]]	72 nM
NCc1ccc2c(c1)C1(CCN(C(=O)C#Cc3ccccc3)CC1)CO2 [Cpd 296, 1-phenylethynylcarbonyl-5′-aminomethyl-spiro[piperidine-4,3′-(2H)-benzo[b]furan]]	210 nM
NCc1ccc2c(c1)C1(CCN(S(=O)(=O)c3ccc(Cl)c(Cl)c3)CC1)CO2 [Cpd 280, 1-(3,4-dichlorophenyl)sulfonyl-5′-aminomethyl-spiro[piperidine-4,3′-(2H)-benzo[b]furan]]	220 nM
Cn1cnc(S(=O)(=O)N2CC3(CCN(C(=O)c4ccc(C#Cc5ccccc5)o4)CC3)c3cc(CN)ccc32)c1 [Cpd 336, 1-(5-phenylethynyl-furan-2-yl)carbonyl-1′-(1-methyl-imidazol-4-yl)sulfonyl-5′-aminomethyl-spiro[piperidine-4,3′-(2H)-indole]]	28 nM
NCc1ccc2c(c1)C1(CCN(C(=O)c3cccc(NC(N)=S)c3)CC1)CO2 [Cpd 5, 1-(3-aminothiocarbonylamino-phenyl)carbonyl-5′-aminomethyl-spiro[piperidine-4,3′-(2H)-benzo[b]furan]]	450 nM
COC(=O)c1ccc(S(=O)(=O)N2CC3(CCN(C(=O)c4ccc(C#Cc5ccccc5)o4)CC3)c3cc(CN)ccc32)o1 [Cpd 345, 1-(5-phenylethynyl-furan-2-yl)carbonyl-1′-(5-methoxycarbonyl-furan-2-yl)sulfonyl-5′-aminomethyl-spiro[piperidine-4,3′-(2H)-indole]]	13 nM
NCc1ccc2c(c1)C1(CCN(C(=O)c3scc4c3CCCC4)CC1)CO2 [Cpd 203, 1-(5,6,7-trihydro-4H-benzo[c]thien-1-yl)carbonyl-5′-aminomethyl-spiro[piperidine-4,3′-(2H)-benzo[b]furan]]	280 nM
Cc1ccccc1Oc1cccc(CC(=O)N2CCC3(CC2)COc2ccc(CN)cc23)c1 [Cpd 208, 1-[3-(2-methyl-phenoxy)-benzyl]carbonyl-5′-aminomethyl-spiro[piperidine-4,3′-(2H)-benzo[b]furan]]	12 nM
NCc1ccc2c(c1)C1(CCN(C(=O)/C=C/c3ccccc3O)CC1)CO2 [Cpd 272, (E)-1-(2-hydroxy-phenylethenyl)carbonyl-5′-aminomethyl-spiro[piperidine-4,3′-(2H)-benzo[b]furan]]	190 nM
Cc1cc(C(=O)N2CCC3(CC2)COc2ccc(CN)cc23)ccc1Cl [Cpd 25, 1-(3-methyl-4-chloro-phenyl)carbonyl-5′-aminomethyl-spiro[piperidine-4,3′-(2H)-benzo[b]furan]]	140 nM
NCc1ccc2c(c1)C1(CCN(C(=O)c3cc4ccsc4s3)CC1)CO2 [Cpd 233, 1-thieno[2,3-b]thien-2-ylcarbonyl-5′-aminomethyl-spiro[piperidine-4,3′-(2H)-benzo[b]furan]]	82 nM
NCc1ccc2c(c1)C1(CCN(C(=O)c3sc(Cl)c(Cl)c3Cl)CC1)CO2 [Cpd 275, 1-(3,4,5-trichloro-thien-2-yl)carbonyl-5′-aminomethyl-spiro[piperidine-4,3′-(2H)-benzo[b]furan]]	22 nM
NCc1ccc2c(c1)C1(CCN(C(=O)c3ccc(C#Cc4ccccc4)o3)CC1)CN2S(=O)(=O)O [Cpd 327, 1-(5-phenylethynyl-furan-2-yl)carbonyl-1′-hydroxysulfonyl-5′-aminomethyl-spiro[piperidine-4,3′-(2H)-indole]]	18 nM
NCc1ccc2c(c1)C1(CCN(C(=O)Cc3cccc(Oc4ccccc4F)c3)CC1)CO2 [Cpd 210, 1-[3-(2-fluoro-phenoxy)-benzyl]carbonyl-5′-aminomethyl-spiro[piperidine-4,3′-(2H)-benzo[b]furan]]	26 nM
CC(C)(C)c1cc(C(=O)N2CCC3(CC2)COc2ccc(CN)cc23)cc(C(C)(C)C)c1 [Cpd 133, 1-(3,5-di-tert-butyl-phenyl)carbonyl-5′-aminomethyl-spiro[piperidine-4,3′-(2H)-benzo[b]furan]]	81 nM
NCc1ccc2c(c1)C1(CCN(C(=O)c3cccc(I)c3)CC1)CO2 [Cpd 48, 1-(3-iodo-phenyl)carbonyl-5′-aminomethyl-spiro[piperidine-4,3′-(2H)-benzo[b]furan]]	16 nM
NCc1ccc2c(c1)C1(CCN(C(=O)c3cc(C(N)=O)cc(-c4nc(-c5cccs5)no4)c3)CC1)CO2 [Cpd 284, 1-[3-(3-thien-2-yl-[1,2,4]oxadiazol-5-yl)-5-aminocarbonyl-phenyl]carbonyl-5′-aminomethyl-spiro[piperidine-4,3′-(2H)-benzo[b]furan]]	4.6 nM
NCc1ccc2c(c1)C1(CCN(C(=O)c3ccc(C=O)s3)CC1)CO2 [Cpd 245, 1-(5-formyl-thien-2-yl)carbonyl-5′-aminomethyl-spiro[piperidine-4,3′-(2H)-benzo[b]furan]]	510 nM
NCc1ccc2c(c1)C1(CCN(C(=O)Cc3cccc(Br)c3)CC1)CO2 [Cpd 95, 1-(3-bromo-benzyl)carbonyl-5′-aminomethyl-spiro[piperidine-4,3′-(2H)-benzo[b]furan]]	3200 nM

Continued, values first:

IC50	Compound
8 nM	CSc1sc(C(=O)N2CCC3(CC2)COc2ccc(CN)cc23)c2c1CCCC2 [Cpd 218, 1-(3-methylthio-5,6,7-trihydro-4H-benzo[c]thien-1-yl)carbonyl-5′-aminomethyl-spiro[piperidine-4,3′-(2H)-benzo[b]furan]]
2.3 nM	NCc1ccc2c(c1)C1(CCN(C(=O)c3cc(C#Cc4ccccc4)ccn3)CC1)CO2 [Cpd 152, 1-[4-phenylethynyl-pyridin-2-yl]carbonyl-5′-aminomethyl-spiro[piperidine-4,3′-(2H)-benzo[b]furan]]
780 nM	CNC(=N)c1ccc2c(c1)C1(CCN(C(=O)c3ccc(C#Cc4ccccc4)o3)CC1)CO2 [Cpd 310, 1-(5-phenylethynyl-furan-2-yl)carbonyl-5′-[methylamino(imino)methyl]-spiro[piperidine-4,3′-(2H)-benzo[b]furan]]
1200 nM	NCc1ccc2c(c1)C1(CCN(C(=O)c3cccc(C(N)=O)c3)CC1)CO2 [Cpd 273, 1-(3-aminocarbonyl-phenyl)carbonyl-5′-aminomethyl-spiro[piperidine-4,3′-(2H)-benzo[b]furan]]
6 nM	NCc1ccc2c(c1)C1(CCN(C(=O)c3nc(-c4cccs4)no3)CC1)CO2 [Cpd 277, 1-(3-thien-2-yl-[1,2,4]oxadiazol-5-yl)carbonyl-5′-aminomethyl-spiro[piperidine-4,3′-(2H)-benzo[b]furan]]
97 nM	NCc1ccc2c(c1)C1(CCN(C(=O)/C=C/c3cccc(OCCc4ccccc4)c3)CC1)CO2 [Cpd 294, (E)-1-(3-phenethoxy-phenylethenyl)carbonyl-5′-aminomethyl-spiro[piperidine-4,3′-(2H)-benzo[b]furan]]
210 nM	NCc1ccc2c(c1)C1(CCN(C(=O)c3sc4ccc5ccccc5c4c3Cl)CC1)CO2 [Cpd 298, 1-(1-chloro-naphtho[2,1-b]thien-2-yl)carbonyl-5′-aminomethyl-spiro[piperidine-4,3′-(2H)-benzo[b]furan]]
73 nM	CCOc1sc(C(=O)N2CCC3(CC2)COc2ccc(CN)cc23)c2c1C(=O)CCC2 [Cpd 261, 1-(3-ethoxy-4-oxo-5,6,7-trihydro-4H-benzo[c]thien-1-yl)carbonyl-5′-aminomethyl-spiro[piperidine-4,3′-(2H)-benzo[b]furan]]
6100 nM	NCc1ccc2c(c1)C1(CCN(C(=O)C3c4ccccc4Oc4ccccc43)CC1)CO2 [Cpd 292, 1-9H-xanthen-9-ylcarbonyl-5′-aminomethyl-spiro[piperidine-4,3′-(2H)-benzo[b]furan]]
7.3 nM	NCc1ccc2c(c1)C1(CCN(C(=O)c3ccc(C#Cc4ccccc4)o3)CC1)NC2=O [Cpd 317, 1-(5-phenylethynyl-furan-2-yl)carbonyl-1′-oxo-5′-aminomethyl-spiro[piperidine-4,3′-1H-isoindole]]
130 nM	NCc1ccc2c(c1)C1(CCN(C(=O)/C=C/c3ccc4ccccc4c3)CC1)CO2 [Cpd 113, (E)-1-(naphthalene-2-ylethenyl)carbonyl-5′-aminomethyl-spiro[piperidine-4,3′-(2H)-benzo[b]furan]]
820 nM	Cc1cc(C(=O)N2CCC3(CC2)COc2ccc(CN)cc23)sc1C(O)O [Cpd 256, 1-(5-dihydroxymethyl-4-methyl-thien-2-yl)carbonyl-5′-aminomethyl-spiro[piperidine-4,3′-(2H)-benzo[b]furan]]
5100 nM	NCc1ccc2c(c1)C1(CCN(C(=O)NCc3ccccc3)CC1)CO2 [Cpd 263, 1-benzylaminocarbonyl-5′-aminomethyl-spiro[piperidine-4,3′-(2H)-benzo[b]furan]]
360 nM	NCc1ccc2c(c1)C1(CCN(C(=O)c3cc4ccccc4[nH]3)CC1)CO2 [Cpd 285, 1-1H-indol-2-ylcarbonyl-5′-aminomethyl-spiro[piperidine-4,3′-(2H)-benzo[b]furan]]
610 nM	COc1cc(CC(=O)N2CCC3(CC2)COc2ccc(CN)cc23)ccc1OCc1ccccc1 [Cpd 106, 1-(3-methoxy-4-benzyloxy-benzyl)carbonyl-5′-aminomethyl-spiro[piperidine-4,3′-(2H)-benzo[b]furan]]
430 nM	NCc1ccc2c(c1)C1(CCN(C(=O)c3ccc(Br)c([N+](=O)[O-])c3)CC1)CO2 [Cpd 33, 1-(3-nitro-4-bromo-phenyl)carbonyl-5′-aminomethyl-spiro[piperidine-4,3′-(2H)-benzo[b]furan]]
